# How the values were obtained:
# [1] = Tasting of the pungent compounds in 11% strength by weight sugar solution (Example 1); format: in vivo, human; conditions: approx. 5 ml swallowed, 8 testers
# Experimental: The substance, under test, was dissolved in ethanol and the ethanolic solution was then diluted with an 11% strength by weight sugar solution (final concentration: c). For tasting, in each case approximately 5 ml of the sugar solution was swallowed. If the threshold value of the substance was known, a value just above the threshold value is chosen for the tasting. A group of 8 testers tasted the solutions.
# [2] = in vivo; cited from earlier work
# [3] = with frequent use and overdose; cited from earlier work
# [4] = system: mouse; conditions: cited from earlier work
# [5] = Test of the combined action of grains of paradise extract and trans-feruloylmethoxytyramine in model system A; format: in vivo, human; conditions: 0.02% by weight solution (10% by weight EtOH) in model system A
# Experimental: (§1) The grains of paradise extract used below was prepared by stirring 800 g of ground grains of paradise with 4 kg of ethanol (96% by volume). After filtration the filtrate was concentrated to 40 g and treated with steam at 100° C. and 300 mbar. The extract was made up to 80 g with ethanol (96% by volume).
# (§2) As commercially conventional model systems, a liqueur base of 10% by volume and a liqueur base of 5.5% by volume were selected.
# Then, to model system A the solution of a grains of paradise extract (10% by weight in ethanol) was added at concentrations of 0.1 to 0.2% by weight, based on the total weight of the model system, and a solution of trans-feruloylmethoxytyramine (10% by weight in ethanol) at a concentration of 0.01 to 0.02% by weight, based on the total weight of the model system. Using a taste-testing group of 8 people, again the effect of grains of paradise extract addition and of trans-feruloylmethoxytyramine addition on the sensory profile were tested. In addition, the combined action was tested.
# [6] = Sensory assessment of the pungency of liqueur base model system A (10% by volume) with additions; format: in vivo, human; conditions: 1% by weight of solution (1% by weight in EtOH) added to model system A
# Experimental: as §1, §2
# To the model system A were then added the solution of the extract of grains of paradise (1% by weight in ethanol (EtOH)) at concentrations of 1 to 3% by weight, based on the total weight of the model system, and a solution of trans-feruloylmethoxytyramine (1% by weight in ethanol) at a concentration of 1% by weight, based on the total weight of the model system. Using a taste-testing group of 8 people, the effect of grains of paradise extract addition and trans-feruloylmethoxytyramine addition on the sensory profile were then tested. The sensory assessment was made on a scale of 1 (weak) to 5 (strong).
# [7] = Gelled fruits having elderberry flavor, flavor intensifier test; format: in vivo, human; conditions: elderberry flavor 0.07% by weight
# From the text: As commercially conventional model system, flavor combinations in gelled fruits having elderberry flavor were used: […]
smiles,measurement,setting,value
"COc1cc(/C=C\C(=O)NCCc2ccc(O)c(OC)c2)ccc1O [cis-feruloylmethoxytyramine, N-[2-(4-hydroxy-3-methoxyphenyl)ethyl]-3-(4-hydroxy-3-methoxyphenyl)-(2Z)-propenamide]",Sensory profile,[1]; c=1 ppm in 11% sugar solution,pungency builds up slowly
"COc1cc(/C=C/C(=O)NCc2ccc(O)c(OC)c2)ccc1O [ferulic acid N-vanillylamide, N-(4-hydroxy-3-methoxybenzyl)-4-hydroxy-3-methoxy-(2E)-propenamide]",Pungency as described in the literature,[2],not described as pungent
"O=C(/C=C/c1ccc(O)c(O)c1)NCCc1ccc(O)cc1 [trans-caffeoyltyramine, N-[2-(4-hydroxyphenyl)ethyl]-3-(3,4-dihydroxyphenyl)-(2E)-propenamide]",Sensory profile,[1]; c=1 ppm in 11% sugar solution,"pungency occurs after a delay, anaesthetizing pungency"
"COc1cc(CNC(=O)CCCC/C=C/C(C)C)ccc1O [capsaicin, N-(4-hydroxy-3-methoxybenzyl)-8-methyl-(6E)-nonenamide]",Chronic damage,[3],"chronic gastritis, kidney damage and liver damage"
same,LD50 (mouse oral),[4],47 mg
"COc1cc(/C=C/C(=O)NCCc2ccc(O)c(OC)c2)ccc1O [trans-feruloylmethoxytyramine, N-[2-(4-hydroxy-3-methoxyphenyl)ethyl]-3-(4-hydroxy-3-methoxyphenyl)-(2E)-propenamide]",Comments (sensory),[5],"Mild, pungency very similar"
same,Sensory profile,[1]; c=10 ppm in 11% sugar solution,"body, sweet, heat develops after delay, long-lasting, especially in the pharyngeal cavity (in the case of 4 participants), adherent, slightly anaesthetizing action"
same,Sensory profile,[1]; c=20 ppm in 11% sugar solution,"sweet, aniseed-like, benzaldehyde, heat develops after a delay (in the case of 8 participants), long-lasting, especially in the pharyngeal cavity, pleasant pepper pungency"
same,Sensory description,[6],"Sweet, vanilla, fruity, less"
same,"Pungency (median), Scale 1-5","[6]; scale 1 (weak) to 5 (strong), 8 people",2
same,Sensory description,[7]; 0.015% by weight of solution (1% by weight in ethanol),Effect only slightly perceptible
same,Sensory description,[7]; 0.03% by weight of solution (1% by weight in ethanol),"Effect below threshold, but pleasant"
same,Sensory description,[7]; 0.045% by weight of solution (1% by weight in ethanol),Flavor fresh and rounded
"COc1ccc(/C=C/C(=O)NCCc2ccc(OC)c(OC)c2)cc1OC [trans-rubenamine, N-[2-(3,4-dimethoxyphenyl)ethyl]-3-(3,4-dimethoxyphenyl)-(2E)-propenamide]",Sensory profile,[1]; c=1 ppm in 11% sugar solution,"pleasant mild pungency, builds up slowly"

# Source: patent US7378121B2, “Use of ferulic acid amides as flavor compounds” (Symrise GmbH & Co. KG, priority 2001, dated 2008)
